# According to the Kinase Knowledgebase extract (Sharma et al. 2016):
# Biological target: CDK2 (human) (UniProt P24941)
# Experiment: Enzyme Assay
# Details: concentration not given here
row,SMILES,inhibition
1,COc1ccc(C(O)C(=O)N2CCC(Nc3nc(N)c(C(=O)c4c(F)cccc4F)s3)CC2)cc1 (centres undefined),58%
2,CC[C@@H](C(=O)N1CCC(Nc2nc(N)c(C(=O)c3c(F)cccc3F)s2)CC1)c1ccccc1,41%
3,CN(C)c1ccccc1C(=O)N1CCC(Nc2nc(N)c(C(=O)c3c(F)cccc3F)s2)CC1,6%
4,Nc1nc(NC2CCN(C(=O)Cc3ccccn3)CC2)sc1C(=O)c1c(F)cccc1F,80%
5,CCCCCC#CC(=O)N1CCC(Nc2nc(N)c(C(=O)c3c(F)cccc3F)s2)CC1,62%
6,CC(=O)c1ccc(O)c(C(=O)N2CCC(Nc3nc(N)c(C(=O)c4c(F)cccc4F)s3)CC2)c1,9%
7,CC(=O)CCCC(=O)N1CCC(Nc2nc(N)c(C(=O)c3c(F)cccc3F)s2)CC1,68%
8,CC(C)(O)CC(=O)N1CCC(Nc2nc(N)c(C(=O)c3c(F)cccc3F)s2)CC1,51%
9,COC1CCCC(C(=O)N2CCC(Nc3nc(N)c(C(=O)c4c(F)cccc4F)s3)CC2)C1 (centres undefined),63%
10,Nc1nc(NC2CCN(C(=O)c3ccco3)CC2)sc1C(=O)c1c(F)cccc1F,49%
11,Nc1nc(NC2CCN(C(=O)Cn3cnnn3)CC2)sc1C(=O)c1c(F)cccc1F,87%
12,Nc1nc(NC2CCN(C(=O)c3ccnc4ccccc34)CC2)sc1C(=O)c1c(F)cccc1F,10%
13,COc1cc(C(O)C(=O)N2CCC(Nc3nc(N)c(C(=O)c4c(F)cccc4F)s3)CC2)ccc1O (centres undefined),26%
14,N#Cc1ccccc1C(=O)N1CCC(Nc2nc(N)c(C(=O)c3c(F)cccc3F)s2)CC1,61%
15,Cc1ccc(/C=C/C(=O)N2CCC(Nc3nc(N)c(C(=O)c4c(F)cccc4F)s3)CC2)cc1C,52%
16,CC(C)(C)c1ccc(CC(=O)N2CCC(Nc3nc(N)c(C(=O)c4c(F)cccc4F)s3)CC2)cc1,55%
17,Nc1nc(NC2CCN(C(=O)Cc3cccc4ccccc34)CC2)sc1C(=O)c1c(F)cccc1F,51%
18,CCCCC[C@H]1CC[C@H](C(=O)N2CCC(Nc3nc(N)c(C(=O)c4c(F)cccc4F)s3)CC2)CC1,14%
19,CC(=O)Oc1cccc(C(=O)N2CCC(Nc3nc(N)c(C(=O)c4c(F)cccc4F)s3)CC2)c1,56%
20,CC(O)(C(=O)N1CCC(Nc2nc(N)c(C(=O)c3c(F)cccc3F)s2)CC1)c1ccccc1 (centres undefined),49%
21,Nc1nc(NC2CCN(C(=O)c3ccc(F)cc3F)CC2)sc1C(=O)c1c(F)cccc1F,67%
22,Nc1nc(NC2CCN(C(=O)C(O)c3ccccc3Cl)CC2)sc1C(=O)c1c(F)cccc1F (centres undefined),51%
23,CC(C)c1cc(C(C)C)c(S(=O)(=O)N2CCC(Nc3nc(N)c(C(=O)c4c(F)cccc4F)s3)CC2)c(C(C)C)c1,-17%

row,SMILES,inhibition
1,Nc1nc(NC2CCN(C(=O)C3COc4ccccc4O3)CC2)sc1C(=O)c1c(F)cccc1F (centres undefined),58%
2,Nc1nc(NC2CCN(C(=O)[C@@H](O)Cc3ccccc3)CC2)sc1C(=O)c1c(F)cccc1F,61%
3,Nc1nc(NC2CCN(C(=O)[C@H]3CCC(=O)O3)CC2)sc1C(=O)c1c(F)cccc1F,76%
4,CCC(C)(O)C(=O)N1CCC(Nc2nc(N)c(C(=O)c3c(F)cccc3F)s2)CC1 (centres undefined),25%
5,Nc1nc(NC2CCN(C(=O)Cc3cccc(F)c3F)CC2)sc1C(=O)c1c(F)cccc1F,57%
6,CCOCCC(=O)N1CCC(Nc2nc(N)c(C(=O)c3c(F)cccc3F)s2)CC1,18%
7,CC[C@H](C(=O)N1CCC(Nc2nc(N)c(C(=O)c3c(F)cccc3F)s2)CC1)c1ccccc1,42%
8,Cc1c(F)cccc1C(=O)N1CCC(Nc2nc(N)c(C(=O)c3c(F)cccc3F)s2)CC1,36%
9,Nc1nc(NC2CCN(C(=O)c3ccc(-n4cccc4)nc3)CC2)sc1C(=O)c1c(F)cccc1F,61%
10,CC(=O)SC(C)CC(=O)N1CCC(Nc2nc(N)c(C(=O)c3c(F)cccc3F)s2)CC1 (centres undefined),50%
11,Cc1ccc2[nH]c(C(=O)N3CCC(Nc4nc(N)c(C(=O)c5c(F)cccc5F)s4)CC3)cc2c1,54%
12,Nc1nc(NC2CCN(C(=O)[C@@H]3CCC(=O)O3)CC2)sc1C(=O)c1c(F)cccc1F,95%
13,CCCCCC(=O)N1CCC(Nc2nc(N)c(C(=O)c3c(F)cccc3F)s2)CC1,36%
14,Nc1nc(NC2CCN(C(=O)OCC3c4ccccc4-c4ccccc43)CC2)sc1C(=O)c1c(F)cccc1F,-12%
15,Nc1nc(NC2CCN(C(=O)COc3ccc(F)cc3)CC2)sc1C(=O)c1c(F)cccc1F,83%
16,Nc1nc(NC2CCN(C(=O)c3ccc(Cl)cc3F)CC2)sc1C(=O)c1c(F)cccc1F,68%
17,C[C@H](O)C(=O)N1CCC(Nc2nc(N)c(C(=O)c3c(F)cccc3F)s2)CC1,67%
18,Cc1cc(C)c(C(=O)N2CCC(Nc3nc(N)c(C(=O)c4c(F)cccc4F)s3)CC2)cc1C,44%
19,Cc1ccccc1C(=O)N1CCC(Nc2nc(N)c(C(=O)c3c(F)cccc3F)s2)CC1,-11%
20,Cc1ccc(C)c(/C=C/C(=O)N2CCC(Nc3nc(N)c(C(=O)c4c(F)cccc4F)s3)CC2)c1,34%
21,Nc1nc(NC2CCN(C(=O)c3nc4ccccc4nc3O)CC2)sc1C(=O)c1c(F)cccc1F,12%
22,CC/C=C\CC(=O)N1CCC(Nc2nc(N)c(C(=O)c3c(F)cccc3F)s2)CC1,85%
23,Nc1nc(NC2CCN(C(=O)CC3=CCCCC3)CC2)sc1C(=O)c1c(F)cccc1F,51%

row,SMILES,inhibition
1,Cc1ccc(OCC(=O)N2CCC(Nc3nc(N)c(C(=O)c4c(F)cccc4F)s3)CC2)cc1,57%
2,COc1ccc(CC(=O)N2CCC(Nc3nc(N)c(C(=O)c4c(F)cccc4F)s3)CC2)cc1OC,55%
3,COc1cccc(CC(=O)N2CCC(Nc3nc(N)c(C(=O)c4c(F)cccc4F)s3)CC2)c1OC,70%
4,Nc1nc(NC2CCN(C(=O)c3ccc(-c4ccccc4)cc3)CC2)sc1C(=O)c1c(F)cccc1F,-11%
5,COCCOCC(=O)N1CCC(Nc2nc(N)c(C(=O)c3c(F)cccc3F)s2)CC1,73%
6,CC(C)c1ccc(/C=C/C(=O)N2CCC(Nc3nc(N)c(C(=O)c4c(F)cccc4F)s3)CC2)cc1,52%
7,Cc1c(S(=O)(=O)c2ccc(Cl)cc2)csc1C(=O)N1CCC(Nc2nc(N)c(C(=O)c3c(F)cccc3F)s2)CC1,-7%
8,CCC(=O)C(=O)N1CCC(Nc2nc(N)c(C(=O)c3c(F)cccc3F)s2)CC1,15%
9,Cc1ccc(C)c(OCC(=O)N2CCC(Nc3nc(N)c(C(=O)c4c(F)cccc4F)s3)CC2)c1,26%
10,CC1(C)C2CC[C@@]1(CS(=O)(=O)N1CCC(Nc3nc(N)c(C(=O)c4c(F)cccc4F)s3)CC1)C(=O)C2,-34%
11,CC(C(=O)N1CCC(Nc2nc(N)c(C(=O)c3c(F)cccc3F)s2)CC1)c1ccc(Cl)cc1 (centres undefined),48%
12,CC(C)(C(=O)N1CCC(Nc2nc(N)c(C(=O)c3c(F)cccc3F)s2)CC1)c1ccccc1,33%
13,Nc1nc(NC2CCN(C(=O)CCCCCc3ccccc3)CC2)sc1C(=O)c1c(F)cccc1F,12%
14,COC(=O)c1cccc(C(=O)N2CCC(Nc3nc(N)c(C(=O)c4c(F)cccc4F)s3)CC2)c1,65%
15,CC(Oc1ccccc1)C(=O)N1CCC(Nc2nc(N)c(C(=O)c3c(F)cccc3F)s2)CC1 (centres undefined),-15%
16,COc1cscc1C(=O)N1CCC(Nc2nc(N)c(C(=O)c3c(F)cccc3F)s2)CC1,58%
17,Nc1nc(NC2CCN(C(=O)Oc3ccc(F)cc3)CC2)sc1C(=O)c1c(F)cccc1F,47%
18,CSc1ccccc1C(=O)N1CCC(Nc2nc(N)c(C(=O)c3c(F)cccc3F)s2)CC1,40%
19,CC(Oc1ccc(O)cc1)C(=O)N1CCC(Nc2nc(N)c(C(=O)c3c(F)cccc3F)s2)CC1 (centres undefined),18%
20,Cc1cccc(CC(=O)N2CCC(Nc3nc(N)c(C(=O)c4c(F)cccc4F)s3)CC2)c1,55%
21,Nc1nc(NC2CCN(C(=O)C3CC3)CC2)sc1C(=O)c1c(F)cccc1F,-2%
22,Nc1nc(NC2CCN(C(=O)CN3C(=O)CSC3=S)CC2)sc1C(=O)c1c(F)cccc1F,64%
23,Nc1nc(NC2CCN(C(=O)[C@@H](O)C3CCCCC3)CC2)sc1C(=O)c1c(F)cccc1F,51%

row,SMILES,inhibition
1,Cc1cnc(C(=O)N2CCC(Nc3nc(N)c(C(=O)c4c(F)cccc4F)s3)CC2)cn1,72%
2,COc1cc(SC)ccc1C(=O)N1CCC(Nc2nc(N)c(C(=O)c3c(F)cccc3F)s2)CC1,22%
3,CC(C)[C@@H]1CC[C@@H](C)C[C@H]1OC(=O)N1CCC(Nc2nc(N)c(C(=O)c3c(F)cccc3F)s2)CC1,-45%
4,CN(C)c1ccc(/C=C/C(=O)N2CCC(Nc3nc(N)c(C(=O)c4c(F)cccc4F)s3)CC2)cc1,75%
5,Cc1ccnc(SCC(=O)N2CCC(Nc3nc(N)c(C(=O)c4c(F)cccc4F)s3)CC2)n1,86%
6,CCOc1ccc(/C=C/C(=O)N2CCC(Nc3nc(N)c(C(=O)c4c(F)cccc4F)s3)CC2)cc1,34%
7,Cc1ccc(C(=O)/C=C/C(=O)N2CCC(Nc3nc(N)c(C(=O)c4c(F)cccc4F)s3)CC2)cc1,78%
8,COc1ccc(OC)c(CC(=O)N2CCC(Nc3nc(N)c(C(=O)c4c(F)cccc4F)s3)CC2)c1,57%
9,CCCC/C=C/C(=O)N1CCC(Nc2nc(N)c(C(=O)c3c(F)cccc3F)s2)CC1,27%
10,Cn1c(C(=O)N2CCC(Nc3nc(N)c(C(=O)c4c(F)cccc4F)s3)CC2)cc2ccccc21,61%
11,Nc1nc(NC2CCN(C(=O)CS/C=C\c3ccccc3)CC2)sc1C(=O)c1c(F)cccc1F,59%
12,Cc1ccc(CCC(=O)N2CCC(Nc3nc(N)c(C(=O)c4c(F)cccc4F)s3)CC2)cc1,36%
13,C=CCCC(=O)N1CCC(Nc2nc(N)c(C(=O)c3c(F)cccc3F)s2)CC1,68%
14,Cc1cccc(OCC(=O)N2CCC(Nc3nc(N)c(C(=O)c4c(F)cccc4F)s3)CC2)c1C,40%
15,Nc1nc(NC2CCN(C(=O)Cc3ccc4c(c3)OCO4)CC2)sc1C(=O)c1c(F)cccc1F,39%
16,COc1ccc(C(=O)N2CCC(Nc3nc(N)c(C(=O)c4c(F)cccc4F)s3)CC2)cc1Cl,47%
17,CC(C)Oc1ccc(C(=O)N2CCC(Nc3nc(N)c(C(=O)c4c(F)cccc4F)s3)CC2)cc1,19%
18,CC/C=C/CC(=O)N1CCC(Nc2nc(N)c(C(=O)c3c(F)cccc3F)s2)CC1,46%
19,CCC(O)C(=O)N1CCC(Nc2nc(N)c(C(=O)c3c(F)cccc3F)s2)CC1 (centres undefined),48%
20,Nc1nc(NC2CCN(C(=O)C(CO)c3ccccc3)CC2)sc1C(=O)c1c(F)cccc1F (centres undefined),57%
